Data published in patent US20130116224A1, “Method and Composition for Treatment of Tumors” (priority 2010, published 2013).

Assays:
IMR 90 = experiment: CTC-96 7-day treatment in RPMI1640/2% FBS (GP689 modified) and confirmation study, cell viability and proliferation assay; format: cell-based
Description: (§1) The study was performed as described in GP689 with modifications as follows:
(§2) The cell growth and test media was RPM11640/2% FBS. All cell lines were acclimated in this low-serum condition for about two weeks prior to treatment with CTC-96. CTC-96 treatment was extended to 7 days from the 3 days previously used. Cell viability and proliferation was measured and medium was changed on day 0, 2, 4 and 7. Fresh CTC-96 added during every medium change. Incubation for cell viability and proliferation assay was performed for 2 hours.
(§3) A new batch of all four test cell lines were acclimated in RPMII 640/2% FBS about 10 days prior to CTC-96 treatment. CTC-96 treatment started after […] of adaptation. A 96-well plate was used at the at the start of proliferation in an attempt to eliminate the peeling of LNCaP monolayers. A manual multichannel pipette was utilized to change medium on day 0. Peeling still occurred in one plate. That plate was arbitrarily assigned the last time point day 7 in order to have good plates of LNCaP for the first three time points in a row.
(§4) For medium changes on days 2, 4 and 7, only half of the media was replaced to completely eliminate the peeling in LNCaP. This method was utilized for the other three cell lines in order to keep the entire test system consistent for all the cell lines. The replacement media contained 1×CTC-96 concentrations and therefore only half of CTC-96 was freshly replaced. Incubation for cell viability and proliferation assay was performed for strictly 2 hours. Allover proliferation was good for all cell lines (see FIG. 6). Untreated ENCaP cells became 100% confluent in all seeding conditions on day 7. […] 4.2.5.2.1.3. The day 4 RFU reading was chosen in the proliferation percentage analysis because the peeling off in LNCaP Day 7 plate led to decrease on RFU so much that the trendline of untreated cells turned downwards instead of plateauing in high density seeding, (see FIG. 6 Al 3). Decay of CTC-96 may occur over 7 days period and inhibition might be lowered towards the end of treatment. The upward turn of the trendline for malignant cell lines in 5 μg/mL may indicate this decay, (see FIG. 6 A2-3, CI-4). Malignant cell lines were more sensitive to CTC-96 than their sister normal cell lines.

RWPE-1 = experiment: as above; format: cell-based
Description: as §1, §2, §3, §4

Malme-3M [1] = experiment: as above; format: cell-based, human
Description: as §1, §2, §3, §4

LNCaP [2] = experiment: as above; format: cell-based, human
Description: as §1, §2, §3, §4

Malme-3M [3] = experiment: In vitro anti-cancer efficacy study of CTC-96, ATCC recommended growth condition (protocol GP687), cell viability and proliferation assay (RFU); format: cell-based, human; conditions: day 2, 20 μg/mL CTC-96, FIG. 2C, ATCC recommended medium
Description: (§5) B. In Vitro Anti-Cancer Efficacy Study of CTC-96 in Cell Lines Maintained in ATCC Recommended Growth Condition Using Approved Protocol GP687
(§6) For example in FIG. 2C, on day 2 with 20 μg/mL CTC-96. […] This difference among the cell lines was quite consistent at all initial seeding densities except for the highest (100%). At the three lower density seedings, the decrease in relative fluorescence units (RFU) was in a near linear relationship with increase of CTC-96 dose for LNCaP and RWPE cells. Both cell types began to show a response to CTC-96 at 5 μg/mL. (see FIGS. 2 C and D).
(§7) When cell proliferation data were obtained for all time points, the RFU reading on day 3 was considerably lower than the projected trend line as shown in FIG. 1. The possible cause was the variation in the incubation time as described in GP687 9.5.2.3. […] Due to time constraints, the incubation time carried out was shorter on day three than for the […]. The longer the incubation time, the greater the RFLI measured. Therefore, day 3 incubation data were not included in the analysis, see FIG. 2. […] Different cell density seedings allowed this study to maximally evaluate the anticancer efficacy of CTC-96. In vitro anticancer effectiveness can be categorized into: killing and inhibiting effects. High density seeding provides maximal numbers of cells to reveal the killing effect, which leads to extensive cell death with quick onset. Also high cell density sometimes provides some protection against cytotoxic effects. Low density seeding reduces the effects of contact inhibition in non-malignant cell lines and allows longer incubation with the drug. The longer treatment time allows observation of maximum inhibitory drug effects. In addition, low density cell seeding allows untreated cells to undergo several cell divisions.
(§8) In this study, four seeding densities of 100%, 50%, 25% and 12.5% were planned for each cell line.

LNCaP [4] = experiment: as above; format: cell-based, human
Description: as §5, §6, §7, §8

RWPE = experiment: as above; format: cell-based
Description: as §5, §6, §7, §8

IMR = experiment: as above; format: cell-based; conditions: day 2, 20 μg/mL CTC-96, FIG. 2C, ATCC recommended medium
Description: as §5, §6, §7, §8

[5] = 20 μg/mL CTC-96, day 2 vs day 0
[6] = FIGS. 2C and D, lower density seedings
[7] = day 2, 20 μg/mL CTC-96, FIG. 2C, ATCC recommended medium

CC(/C=C(/C)[O-])=NCCN=C(C)/C=C(/C)[O-].Cc1ncc[nH]1.Cc1ncc[nH]1.[Br-].[Co+3] [CTC-96]
proliferation (IMR 90; IMR 90, 5 μg/mL): continues proliferating | proliferation (IMR 90; IMR, 10 μg/mL CTC-96, RPMI1640/2% FBS, 7-day treatment): inhibited the proliferation | inhibition (proliferation percentage, day 4 RFU) (IMR 90; IMR, 10 μg/mL, confirmation study, FIG. 7): lower degree of inhibition | proliferation (RWPE-1; RWPE, 10 μg/mL CTC-96, RPMI1640/2% FBS, 7-day treatment): inhibited the proliferation | inhibition (proliferation percentage, day 4 RFU) (RWPE-1; RWPE, 10 μg/mL, confirmation study, FIG. 7): lower degree of inhibition | proliferation (RWPE-1; RWPE-1, 25% cell density, 5 t μm/mL): still proceeds proliferating, albeit, at a reduced rate | proliferation (RWPE-1; RWPE-1, 50% cell density, same drug concentration (5 μm/mL)): minimally affected | cell elimination (cell loss) (RWPE-1; RWPF-1 (non-malignant counterpart), seeding densities 50% and 25%, concentration that killed the malignant cell line): no cell loss | proliferation (Malme-3M [1]; Malme 3M, 1 μg/mL): ceases proliferating | cell elimination / proliferation (Malme-3M [1]; Malme 3M, 5 μg/mL drug concentration): not killed, but stopped proliferating | cell number relative to originally seeded (Malme-3M [1]; Malme-3M, 5 μg/mL CTC-96, RPMI1640/2% FBS, 7-day treatment, FIG. 4C): almost no change, or even had fewer cells than originally seeded | inhibition (proliferation percentage, day 4 RFU) (Malme-3M [1]; Malme-3M, 5 μg/mL, confirmation study, FIG. 7): greater inhibition | cell number relative to originally seeded (LNCaP [2]; 5 μg/mL CTC-96, RPMI1640/2% FBS, 7-day treatment, FIG. 4A): almost no change, or even had fewer cells than originally seeded | inhibition (proliferation percentage, day 4 RFU) (LNCaP [2]; 5 μg/mL, confirmation study, FIG. 7): greater inhibition | proliferation (LNCaP [2]; 25% cell density, 5 t μm/mL): proliferation completely ceases | proliferation diminished (LNCaP [2]; 50% cell density, 5 μm/mL CTC-96, RPMI 1640/2% FBS): 30-40% | decrease in cell number compared to un-treated controls (LNCaP [2]; initial seeding densities of 50% and 25%, 5 μm/mL CTC-96): 30-50% | total cells in comparison to untreated controls (Malme-3M [3]): 70% | killing effect (net cell loss) (LNCaP [4]; [5]): lower number of cell on day 2 than on day 0 | concentration at which cells began to show a response (LNCaP [4]; [6]): 5 µg/mL | total cells in comparison to untreated controls (LNCaP [4]; [7]): 12% | killing effect (net cell loss) (RWPE; [5]): lower number of cell on day 2 than on day 0 | concentration at which cells began to show a response (RWPE; [6]): 5 µg/mL | total cells in comparison to untreated controls (RWPE; [7]): 10% | total cells in comparison to untreated controls (IMR): 72%
